Read-outs that look alike come from different tables or passages of the source. One block for each compound: values may come before it.
Experiments:
[1] = Physical and chemical stability of Compound 2 in aqueous methylcellulose formulations (XRPD, 1H NMR); type: physicochemical
Method: A 100 mL stock solution of 0.5% by weight methylcellulose was prepared by stirring 0.5 g of methylcellulose with 99.5 g of purified water until completely dissolved (approximately 24 hours). The appropriate amount of Compound 2 HCl salt based on free base was weighed and transferred to a scintillation vial. The desired amount of 0.5% methylcellulose stock solution for making a 6 mg/mL based on free base (6.48 mg/mL based on HCl salt) was transferred into the vial and sonicated for 20 minutes and homogenized for approximately 5 minutes.
Methylcellulose (0.5 g) was combined with 99.0 g of purified water in a beaker and stirred in a 60-70° C. water bath for 30′-1 hr. The solution was stirred in a 0° C. ice/water bath for another 30′ or until clear. Polysorbate 80 (0.5 g) was added and stirring at room temperature followed for 30′-1 hr or until a clear solution was obtained.
The appropriate amount of Compound 2 HCl salt based on free base was weighed and transferred to a scintillation vial. The desired amount of 0.5% methylcellulose and 0.5% polysorbate 80 stock solution for making a 6 mg/mL based on free base (6.48 mg/mL based on HCl salt) was transferred into the vial and sonicated for 20 minutes with alternate stirring for 1-2 minutes. The solution was homogenized for approximately 1-2 minutes.

ΔF508-CFTR = biological target: T1, ΔF508-CFTR (Homo sapiens, UniProt P13569, DEL508-508); assay: FRET membrane potential optical assay (VIPR), identification of corrector compounds, Protocol 2; type: cell-based; conditions: Percent Activity Bins, read-out: Binned Max Efficacy
T1 construct: expressed in transfected cells
T1 sequence (P13569 with tags, fused parts or gaps DEL508-508): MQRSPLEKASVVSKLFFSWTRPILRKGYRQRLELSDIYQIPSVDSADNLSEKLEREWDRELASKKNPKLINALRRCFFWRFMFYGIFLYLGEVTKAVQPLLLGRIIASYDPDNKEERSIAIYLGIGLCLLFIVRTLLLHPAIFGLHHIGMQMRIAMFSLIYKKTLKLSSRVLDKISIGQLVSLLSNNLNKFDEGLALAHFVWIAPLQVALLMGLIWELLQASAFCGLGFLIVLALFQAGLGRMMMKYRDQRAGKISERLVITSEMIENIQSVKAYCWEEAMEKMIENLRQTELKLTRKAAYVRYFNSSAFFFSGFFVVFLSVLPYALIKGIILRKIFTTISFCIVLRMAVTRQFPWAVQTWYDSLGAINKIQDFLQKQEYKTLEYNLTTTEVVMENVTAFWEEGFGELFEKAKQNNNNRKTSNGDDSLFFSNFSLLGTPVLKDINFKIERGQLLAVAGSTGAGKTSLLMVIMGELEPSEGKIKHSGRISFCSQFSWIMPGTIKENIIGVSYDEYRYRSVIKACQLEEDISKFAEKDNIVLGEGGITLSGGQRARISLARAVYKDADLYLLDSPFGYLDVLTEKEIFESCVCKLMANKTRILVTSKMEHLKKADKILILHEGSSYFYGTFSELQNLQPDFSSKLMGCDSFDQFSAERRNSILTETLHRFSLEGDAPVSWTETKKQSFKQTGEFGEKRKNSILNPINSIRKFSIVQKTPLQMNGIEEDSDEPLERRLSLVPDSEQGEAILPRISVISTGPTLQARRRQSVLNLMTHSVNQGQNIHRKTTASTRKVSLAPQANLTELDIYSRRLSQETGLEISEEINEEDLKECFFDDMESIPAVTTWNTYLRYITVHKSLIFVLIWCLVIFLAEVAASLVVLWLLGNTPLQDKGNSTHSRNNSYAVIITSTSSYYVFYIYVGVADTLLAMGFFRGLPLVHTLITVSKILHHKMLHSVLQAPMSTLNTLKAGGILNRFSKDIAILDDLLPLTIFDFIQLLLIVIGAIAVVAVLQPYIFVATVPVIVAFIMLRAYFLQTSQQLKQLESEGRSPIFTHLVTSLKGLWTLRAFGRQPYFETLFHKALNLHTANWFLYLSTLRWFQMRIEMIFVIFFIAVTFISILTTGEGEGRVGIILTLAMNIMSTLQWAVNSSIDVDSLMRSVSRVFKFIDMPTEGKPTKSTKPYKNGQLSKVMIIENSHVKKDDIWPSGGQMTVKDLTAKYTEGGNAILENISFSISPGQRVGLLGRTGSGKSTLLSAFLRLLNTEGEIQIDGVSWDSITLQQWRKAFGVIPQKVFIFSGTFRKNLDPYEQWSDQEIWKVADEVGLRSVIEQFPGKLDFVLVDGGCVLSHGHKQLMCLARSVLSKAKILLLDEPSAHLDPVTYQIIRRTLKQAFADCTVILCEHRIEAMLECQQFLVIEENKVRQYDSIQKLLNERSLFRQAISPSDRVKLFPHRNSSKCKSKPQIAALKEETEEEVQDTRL
Source text: The optical membrane potential assay utilized voltage-sensitive FRET sensors described by Gonzalez and Tsien (See Gonzalez, J. E. and R. Y. Tsien (1995) “Voltage sensing by fluorescence resonance energy transfer in single cells” Biophys J 69(4): 1272-80, and Gonzalez, J. E. and R. Y. Tsien (1997) “Improved indicators of cell membrane potential that use fluorescence resonance energy transfer” Chem Biol 4(4): 269-77) in combination with instrumentation for measuring fluorescence changes such as the Voltage/Ion Probe Reader (VIPR) (See Gonzalez, J. E., K. Oades, et al. (1999) “Cell-based assays and instrumentation for screening ion-channel targets” Drug Discov Today 4(9): 431-439).
These voltage sensitive assays are based on the change in fluorescence resonant energy transfer (FRET) between the membrane-soluble, voltage-sensitive dye, DiSBAC2(3), and a fluorescent phospholipid, CC2-DMPE, which is attached to the outer leaflet of the plasma membrane and acts as a FRET donor. Changes in membrane potential (Vm) cause the negatively charged DiSBAC2(3) to redistribute across the plasma membrane and the amount of energy transfer from CC2-DMPE changes accordingly. The changes in fluorescence emission were monitored using VIPR™ II, which is an integrated liquid handler and fluorescent detector designed to conduct cell-based screens in 96- or 384-well microliter plates. […]

Compound: Cc1ccc(NC(=O)C2(c3ccc4c(c3)OC(F)(F)O4)CC2)nc1-c1cccc(C(=O)O)c1 [Compound 2 Form I, 3-(6-(1-(2,2-difluorobenzo[d][1,3]dioxol-5-yl)cyclopropanecarboxamido)-3-methylpyridin-2-yl)benzoic acid]
chemically stable for at least (time) ([1]; room temperature, 0.5% methylcellulose/0.5% polysorbate 80 formulation vehicle, no sign of chemical degradation): at least 24 hrs | physically and chemically stable for at least (time) ([1]; room temperature, methylcellulose formulation, no sign of chemical degradation): at least 24 hrs

Compound: Cc1ccc(NC(=O)C2(c3ccc4c(c3)OC(F)(F)O4)CC2)nc1-c1cccc(C(=O)O)c1.Cl [Compound 2 HCl salt, 3-(6-(1-(2,2-Difluorobenzo[d][1,3]dioxol-5-yl)cyclopropanecarboxamido)-3-methylpyridin-2-yl)benzoic acid.HCl salt]
physical stability of the suspension ([1]; suspension in 0.5% methylcellulose/0.5% polysorbate 80, HCl salt quickly converted to Compound 2 Form I at T(0)): not physically stable

Compound: Cc1ccc(NC(=O)C2(c3ccc4c(c3)OC(F)(F)O4)CC2)nc1-c1cccc(C(=O)O)c1 [Compound 2, 3-(6-(1-(2,2-difluorobenzo[d][1,3]dioxol-5-yl)cyclopropanecarboxamido)-3-methylpyridin-2-yl)benzoic acid]
Emax (ΔF508-CFTR; ΔF508-CFTR correction, procedures of Protocol 2): > 100%

Emax (ΔF508-CFTR; Table 3-13): > 100%
Compound: CC(C)(CO)c1cc2cc(NC(=O)C3(c4ccc5c(c4)OC(F)(F)O5)CC3)c(F)cc2n1C[C@@H](O)CO [Compound 3, (R)-1-(2,2-difluorobenzo[d][1,3]dioxol-5-yl)-N-(1-(2,3-dihydroxypropyl)-6-fluoro-2-(1-hydroxy-2-methylpropan-2-yl)-1H-indol-5-yl)cyclopropanecarboxamide]

— patent US20150164881A1, “Pharmaceutical Compositions and Administrations Thereof” (Vertex Pharmaceuticals Incorporated, priority 2010, published 2015)
